Measured values from patent publication US9879303B2, “Chromogenic glucuronidase substrates and uses” (Glycosynth Limited, priority 2013, dated 2018).
Structures can show the parent of a compound that is named as a salt.

Assays:
Assay type in all cases: cell-based
E. cloacae [1] = experiment: screen of strains on agar plates (CPS ID 3 or Columbia agar); parameters: key: Red, Green, Black or Purple mean strong colour; Red, Green, Black or Purple mean strong colour; Red, Green, Black or Purple mean strong colour; Red, Green, Black or Purple mean strong colour; +/− means less colour than strong; Tr means a trace of colour, less than +/−; — means no colour
E. faecium NCTC 7171 [2] = experiment: as above; parameters: key: Red, Green, Black or Purple mean strong colour; Red, Green, Black or Purple mean strong colour; Red, Green, Black or Purple mean strong colour; Red, Green, Black or Purple mean strong colour; +/− means less colour than strong; Tr means a trace of colour, less than +/−; — means no colour; conditions: 37° C. 18 hours
E. faecalis NCTC 775 = experiment: as above; parameters: key: Red, Green, Black or Purple mean strong colour; Red, Green, Black or Purple mean strong colour; Red, Green, Black or Purple mean strong colour; Red, Green, Black or Purple mean strong colour; +/− means less colour than strong; Tr means a trace of colour, less than +/−; — means no colour; conditions: 37° C. 18 hours
[3] = test system: Acinetobacter baumanaii NCTC 19606; experiment: multi-point inoculation onto Columbia agar plates; conditions: substrate 300 mg/L, FAC 500 mg/L, 18 h at 37° C. in air
Protocol: (§1) The specificity of action of both DHN-β-D-glucuronide (2) and of catechol-β-D-glucuronide (1), as well as their 6′-methyl esters (4 and 6), was first established using multi-point inoculation of 20 different microbial strains onto Columbia agar plates. The strains chosen represented species commonly encountered in diagnostic microbiology. The substrates were incorporated into the agar at a concentration of 300 mg/L with an iron salt, ferric ammonium citrate, (hereinafter known as FAC) at 500 mg/L. The plates were incubated for 18 h at 37° C. in air.

[4] = test system: Bacillus subtilis NCTC 9372; experiment: multi-point inoculation onto Columbia agar plates; conditions: substrate 300 mg/L, FAC 500 mg/L, 18 h at 37° C. in air
Protocol: as §1

[5] = test system: Burkholderia cepacia NCTC 10931; experiment: multi-point inoculation onto Columbia agar plates; conditions: substrate 300 mg/L, FAC 500 mg/L, 18 h at 37° C. in air
Protocol: as §1

[6] = test system: Candida albicans ATCC 90028; experiment: multi-point inoculation onto Columbia agar plates; conditions: substrate 300 mg/L, FAC 500 mg/L, 18 h at 37° C. in air
Protocol: as §1

[7] = test system: Candida glabrata NCPF 3943; experiment: multi-point inoculation onto Columbia agar plates; conditions: substrate 300 mg/L, FAC 500 mg/L, 18 h at 37° C. in air
Protocol: as §1

[8] = test system: Enterobacter cloacae NCTC 11936; experiment: multi-point inoculation onto Columbia agar plates; conditions: substrate 300 mg/L, FAC 500 mg/L, 18 h at 37° C. in air
Protocol: as §1

[9] = test system: Enterococcus faecalis NCTC 775; experiment: multi-point inoculation onto Columbia agar plates; conditions: substrate 300 mg/L, FAC 500 mg/L, 18 h at 37° C. in air
Protocol: as §1

[10] = test system: Enterococcus faecium NCTC 7171; experiment: multi-point inoculation onto Columbia agar plates; conditions: substrate 300 mg/L, FAC 500 mg/L, 18 h at 37° C. in air
Protocol: as §1

[11] = test system: Escherichia coli NCTC 10418; experiment: multi-point inoculation onto Columbia agar plates; conditions: substrate 300 mg/L, FAC 500 mg/L, 18 h at 37° C. in air
Protocol: as §1

[12] = test system: Klebsiella pneumoniae NCTC 9528; experiment: multi-point inoculation onto Columbia agar plates; conditions: substrate 300 mg/L, FAC 500 mg/L, 18 h at 37° C. in air
Protocol: as §1

[13] = test system: Listeria monocytogenes NCTC 11994; experiment: multi-point inoculation onto Columbia agar plates; conditions: substrate 300 mg/L, FAC 500 mg/L, 18 h at 37° C. in air
Protocol: as §1

[14] = test system: Providencia rettgeri NCTC 7475; experiment: multi-point inoculation onto Columbia agar plates; conditions: substrate 300 mg/L, FAC 500 mg/L, 18 h at 37° C. in air
Protocol: as §1

[15] = test system: Pseudomonas aeruginosa NCTC 10662; experiment: multi-point inoculation onto Columbia agar plates; conditions: substrate 300 mg/L, FAC 500 mg/L, 18 h at 37° C. in air
Protocol: as §1

[16] = test system: Salmonella typhimurium NCTC 74; experiment: multi-point inoculation onto Columbia agar plates; conditions: substrate 300 mg/L, FAC 500 mg/L, 18 h at 37° C. in air
Protocol: as §1

[17] = test system: Serratia marcescens NCTC 10211; experiment: multi-point inoculation onto Columbia agar plates; conditions: substrate 300 mg/L, FAC 500 mg/L, 18 h at 37° C. in air
Protocol: as §1

[18] = test system: Staphylococcus aureus (MRSA) NCTC 11939; experiment: multi-point inoculation onto Columbia agar plates; conditions: substrate 300 mg/L, FAC 500 mg/L, 18 h at 37° C. in air
Protocol: as §1

[19] = test system: Staphylococcus aureus NCTC 6571; experiment: multi-point inoculation onto Columbia agar plates; conditions: substrate 300 mg/L, FAC 500 mg/L, 18 h at 37° C. in air
Protocol: as §1

[20] = test system: Staphylococcus epidermidis NCTC 11047; experiment: multi-point inoculation onto Columbia agar plates; conditions: substrate 300 mg/L, FAC 500 mg/L, 18 h at 37° C. in air
Protocol: as §1

[21] = test system: Streptococcus pyogenes NCTC 8306; experiment: multi-point inoculation onto Columbia agar plates; conditions: substrate 300 mg/L, FAC 500 mg/L, 18 h at 37° C. in air
Protocol: as §1

[22] = test system: Yersinia enterocolitica NCTC 11176; experiment: multi-point inoculation onto Columbia agar plates; conditions: substrate 300 mg/L, FAC 500 mg/L, 18 h at 37° C. in air
Protocol: as §1

E. cloacae [23] = experiment: screen of strains in broth medium containing FAC; parameters: key: Red, Green, Black or Purple mean strong colour; Red, Green, Black or Purple mean strong colour; Red, Green, Black or Purple mean strong colour; Red, Green, Black or Purple mean strong colour; +/− means less colour than strong; Tr means a trace of colour, less than +/−; — means no colour
E. faecium NCTC 7171 [24] = experiment: screen of strains in broth medium containing FAC; parameters: key: Red, Green, Black or Purple mean strong colour; Red, Green, Black or Purple mean strong colour; Red, Green, Black or Purple mean strong colour; Red, Green, Black or Purple mean strong colour; +/− means less colour than strong; Tr means a trace of colour, less than +/−; — means no colour; conditions: 37° C. 18 hours
[25] = E. cloacae 260329R, 37° C. 18 hours
[26] = E. cloacae NCTC 11936, 37° C. 18 hours

Measured: colour

O=C(O)[C@H]1O[C@@H](Oc2c[nH]c3cc(Cl)ccc23)[C@H](O)[C@@H](O)[C@@H]1O [Rose-β-D-glucuronide CHA salt, 6-chloro-3-indolyl β-D-glucuronide]
—: E. cloacae [1]; [25] | E. cloacae [1]; [26] | E. faecium NCTC 7171 [2] | E. faecalis NCTC 775

O=C(O)C1OC(Oc2cc3ccccc3cc2O)C(O)C(O)C1O [Compound 2b, DHN-β-D-Glucuronide CHA Salt]
—: E. cloacae [23]; [25] | E. cloacae [23]; [26] | E. faecium NCTC 7171 [24]
++: [11]
−: [3] | [4] | [5] | [6] | [7] | [8] | [9] | [10] | [12] | [13] | [14] | [15] | [16] | [17] | [18] | [19] | [20] | [21] | [22]

O=C(O)C1OC(Oc2ccccc2O)C(O)C(O)C1O [Compound 1, Catechol β-D-Glucuronide CHA Salt]
++: [11]
—: E. cloacae [23]; [25] | E. cloacae [23]; [26] | E. faecium NCTC 7171 [24]
−: [3] | [4] | [5] | [6] | [7] | [8] | [9] | [10] | [12] | [13] | [14] | [15] | [16] | [17] | [18] | [19] | [20] | [21] | [22]

O=C(O)[C@H]1O[C@@H](Oc2c[nH]c3ccc(Br)c(Cl)c23)[C@H](O)[C@@H](O)[C@@H]1O [X-β-D-glucuronide CHA salt, 5-bromo-4-chloro-3-indolyl β-D-glucuronide]
—: E. cloacae [1]; [25] | E. cloacae [1]; [26] | E. faecium NCTC 7171 [2] | E. faecalis NCTC 775
